{
  "source": "patent US20100120700A1",
  "about": "“METHODS AND COMPOSITIONS FOR TREATING CERVICAL CANCER” (priority 2000, published 2010)",
  "assay_in_all_cases": "G assay PDZ-PL binding",
  "key": {"EBP50 #311.1 domain 1": {"molecular_target": "T1, EBP50 #311.1 domain 1 (Homo sapiens, UniProt O14745)", "T1 construct": "made in house; host or cells: E. coli (DH5alpha or BL-21)", "T1 sequence (O14745 with tags, fused parts or gaps)": "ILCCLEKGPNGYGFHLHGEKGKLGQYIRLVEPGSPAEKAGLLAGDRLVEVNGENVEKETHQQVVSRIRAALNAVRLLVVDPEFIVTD", "settings": "peptide 10 uM, protein 5", "description": "(§1) (1) A PDZ-domain polypeptide is bound to a surface, e.g. a protein binding surface. In a preferred embodiment, a GST/PDZ fusion protein containing one or more PDZ domains is bound to a polystyrene 96-well plate. […] In one embodiment, the GST/PDZ fusion protein is bound via an anti-GST antibody that is coated onto the 96-well plate. Adequate binding to the plate can be achieved when: • a. 100 uL per well of 5 ug/mL goat anti-GST polyclonal antibody (Pierce) in PBS is added to a polystyrene 96-well plate (e.g., Num Polysorb) at 4° C. for 12 hours. • b. The plate is blocked by addition of 200 uL per well of PBS/BSA for 2 hours at 4° C. • c. The plate is washed 3 times with PBS. • d. 50 uL per well of 5 ug/mL GST/PDZ fusion protein) or, as a negative control, GST polypeptide alone (i.e. not a fusion protein) in PBS/BSA is added to the plate for 2 hours at 4° C. • e. The plate is again washed 3 times with PBS.\n(§2) (2) Biotinylated PL peptides are allowed to react with the surface by addition of 50 uL per well of 20 uM solution of the biotinylated peptide in PBS/BSA for 10 minutes at 4° C., followed by an additional 20 minute incubation at 25° C.\n(§3) (3) The binding of the biotinylated peptide to the GST/PDZ fusion protein surface can be detected using a variety of methods and detectors known to one of skill in the art. In one embodiment, 100 uL per well of 0.5 ug/mL streptavidin-horse radish peroxidase (HRP) conjugate dissolved in BSA/PBS is added and allowed to react for 20 minutes at 4° C. The plate is then washed 5 times with 50 mM Tris pH 8.0 containing 0.2% Tween 20, and developed by addition of 100 uL per well of HRP-substrate solution (TMB, Dako) for 20 minutes at room temperature (RT). The reaction of the HRP and its substrate is terminated by addition of 100 uL per well of 1M sulfuric acid, and the absorbance of each well of the plate is read at 450 nm.\n(§4) (4) Specific binding of a PL peptide and a PDZ domain polypeptide is determined by comparing the signal from the well(s) in which the PL peptide and PDZ domain polypeptide are combined, with the background signal(s). The background signal is the signal found in the negative control(s). Typically a specific or selective reaction will be at least twice background signal, more typically more than 5 times background, and most typically 10 or more times the background signal. In addition, a statistically significant reaction will involve multiple measurements of the reaction with the signal and the background differing by at least two standard errors, more typically four standard errors, and most typically six or more standard errors. Correspondingly, a statistical test (e.g. a T-test) comparing repeated measurements of the signal with-repeated measurements of the background will result in a p-value<0.05, more typically a p-value<0.01, and most typically a p-value<0.001 or less. As noted, in an embodiment of the “G” assay, the signal from binding of a given PL peptide to immobilized (surface bound) GST polypeptide alone is one suitable negative control (sometimes referred to as “B 1”). Because all measurement are done in multiples (i.e. at least duplicate) the arithmetic mean (or, equivalently, average.) of several measurements is used in determining the binding, and the standard error of the mean is used in determining the probable error in the measurement of the binding. The standard error of the mean of N measurements equals the square root of the following: the sum of the squares of the difference between each measurement and the mean, divided by the product of (N) and (N−1). Thus, in one embodiment, specific binding of the PDZ protein to the platebound peptide is determined by comparing the mean signal (“mean S”) and standard error of the signal (“SE”) for a particular PL-PDZ combination with the mean B1. […]"}, "PDZ-73 domain 2": {"molecular_target": "T2, PDZ-73 domain 2 (Homo sapiens, UniProt Q9Y6N9)", "T2 construct": "made in house; host or cells: E. coli (DH5alpha, BL21 or JM109), vector pGEX-3X", "T2 sequence (Q9Y6N9 with tags, fused parts or gaps)": "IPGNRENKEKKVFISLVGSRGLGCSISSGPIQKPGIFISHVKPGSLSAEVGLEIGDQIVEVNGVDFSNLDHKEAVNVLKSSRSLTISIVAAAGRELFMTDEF", "settings": "peptide 10 uM, protein 5", "description": "as §1, §2, §3, §4"}, "ZO-2 domain 2": {"molecular_target": "T3, ZO-2 domain 2 (Homo sapiens, UniProt Q9UDY2)", "T3 construct": "made in house; host or cells: E. coli (DH5alpha, BL21 or JM109)", "T3 sequence (Q9UDY2 with tags, fused parts or gaps)": "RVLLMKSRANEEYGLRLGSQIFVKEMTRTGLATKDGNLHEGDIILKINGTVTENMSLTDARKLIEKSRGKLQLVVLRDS", "settings": "peptide 10 uM, protein 5", "description": "as §1, §2, §3, §4"}, "KIAA1719 domain 3": {"molecular_target": "T4, KIAA1719 domain 3 (Homo sapiens, UniProt Q9C0E4)", "T4 construct": "made in house; host or cells: E. coli (DH5alpha, BL21 or JM109)", "T4 sequence (Q9C0E4 with tags, fused parts or gaps)": "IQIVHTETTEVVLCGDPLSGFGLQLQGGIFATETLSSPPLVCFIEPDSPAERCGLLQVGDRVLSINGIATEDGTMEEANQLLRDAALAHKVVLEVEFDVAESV", "settings": "peptide 10 uM, protein 5", "description": "as §1, §2, §3, §4"}, "INADL domain 8": {"molecular_target": "T5, INADL domain 8 (Homo sapiens, UniProt Q8NI35)", "T5 construct": "made in house; host or cells: E. coli (DH5alpha or BL-21)", "T5 sequence (Q8NI35 1425-1517)": "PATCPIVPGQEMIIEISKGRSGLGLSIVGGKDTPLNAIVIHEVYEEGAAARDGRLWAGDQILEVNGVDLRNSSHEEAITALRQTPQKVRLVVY", "settings": "peptide 10 uM, protein 5", "description": "as §1, §2, §3, §4"}, "INADL domain 4": {"molecular_target": "T6, INADL domain 4 (Homo sapiens, UniProt Q8NI35)", "T6 construct": "made in house; host or cells: E. coli (DH5alpha, BL21 or JM109)", "T6 sequence (Q8NI35 with tags, fused parts or gaps)": "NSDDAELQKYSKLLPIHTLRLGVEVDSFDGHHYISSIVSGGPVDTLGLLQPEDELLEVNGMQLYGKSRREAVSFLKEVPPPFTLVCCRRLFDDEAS", "settings": "peptide 10 uM, protein 5", "description": "as §1, §2, §3, §4"}, "KIAA0382 domain 1": {"molecular_target": "T7, KIAA0382 domain 1 (Homo sapiens, UniProt Q9NZN5)", "T7 construct": "made in house; host or cells: E. coli (DH5alpha, BL21 or JM109), vector pGEX-3X", "T7 sequence (Q9NZN5 with tags, fused parts or gaps)": "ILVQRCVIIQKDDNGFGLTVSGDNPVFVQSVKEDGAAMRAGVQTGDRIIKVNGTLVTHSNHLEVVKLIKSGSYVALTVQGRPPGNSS", "settings": "peptide 10 uM, protein 5", "description": "as §1, §2, §3, §4"}, "KIAA1526 #125.1 domain 1": {"molecular_target": "T8, KIAA1526 #125.1 domain 1 (Homo sapiens, UniProt Q9P202)", "T8 construct": "made in house; host or cells: E. coli (DH5alpha, BL21 or JM109)", "T8 sequence (Q9P202 130-232)": "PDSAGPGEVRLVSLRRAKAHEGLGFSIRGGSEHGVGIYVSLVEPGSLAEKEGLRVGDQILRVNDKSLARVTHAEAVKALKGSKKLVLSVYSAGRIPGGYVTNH", "settings": "peptide 10 uM, protein 5", "description": "as §1, §2, §3, §4"}, "[1]": {"molecular_target": "T9, Syntrophin beta 2 domain 1 (Homo sapiens, UniProt Q13425)", "T9 construct": "made in house; host or cells: E. coli (DH5alpha, BL21 or JM109)", "T9 sequence (Q13425 with tags, fused parts or gaps)": "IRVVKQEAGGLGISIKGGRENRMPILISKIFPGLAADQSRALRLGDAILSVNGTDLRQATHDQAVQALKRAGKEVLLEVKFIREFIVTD", "settings": "peptide 10 uM, protein 5", "description": "as §1, §2, §3, §4"}, "PSD95 domain 2": {"molecular_target": "T10, PSD95 domain 2 (Homo sapiens, UniProt P78352)", "T10 construct": "made in house; host or cells: E. coli (DH5alpha, BL21 or JM109)", "settings": "vs GST only well, peptide 10 uM, protein 5", "description": "as §1, §2, §3, §4"}, "MAGI 1 domain 5": {"molecular_target": "T11, MAGI 1 domain 5 (Homo sapiens, UniProt Q96QZ7)", "T11 construct": "made in house; host or cells: E. coli (DH5alpha, BL21 or JM109)", "T11 sequence (Q96QZ7 988-1099)": "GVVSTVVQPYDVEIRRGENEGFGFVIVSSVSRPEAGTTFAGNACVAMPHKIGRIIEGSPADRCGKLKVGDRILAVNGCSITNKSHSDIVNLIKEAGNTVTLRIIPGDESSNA", "settings": "peptide 10 uM, protein 5", "description": "as §1, §2, §3, §4"}, "[2]": {"molecular_target": "T12, Syntrophin gamma 1 domain 1 (Homo sapiens, UniProt Q9NSN8)", "T12 construct": "made in house; host or cells: E. coli (DH5alpha, BL21 or JM109), vector pGEX-3X", "T12 sequence (Q9NSN8 49-149)": "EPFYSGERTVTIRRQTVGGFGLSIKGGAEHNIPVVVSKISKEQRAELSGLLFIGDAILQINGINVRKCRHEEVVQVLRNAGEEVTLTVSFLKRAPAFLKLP", "settings": "peptide 10 uM, protein 5", "description": "as §1, §2, §3, §4"}, "PAR3 #278.1 domain 3": {"molecular_target": "T13, PAR3 #278.1 domain 3 (Homo sapiens, UniProt Q8TEW0)", "T13 construct": "made in house; host or cells: E. coli (DH5alpha, BL21 or JM109)", "T13 sequence (Q8TEW0 579-681)": "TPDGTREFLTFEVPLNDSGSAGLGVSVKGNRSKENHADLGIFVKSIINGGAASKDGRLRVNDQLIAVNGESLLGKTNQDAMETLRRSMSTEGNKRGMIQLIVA", "settings": "peptide 10 uM, protein 5", "description": "as §1, §2, §3, §4"}, "PSD95 domain 1, 2, 3": {"molecular_target": "T14, PSD95 domain 1, 2, 3 (Homo sapiens, UniProt P78352)", "T14 construct": "the DNA portion cloned represents the PDZ domains and the cDNA portion located between individual domains; made in house; host or cells: E. coli (DH5alpha, BL21 or JM109)", "settings": "peptide 10 uM, protein 5", "description": "as §1, §2, §3, §4"}},
  "note": "Values joined by “and” are separate entries in the source; they are usually repeats but may differ in a detail not shown here. Identical values can stand only once.",
  "data": [
    {"substance": "20 mer peptide corresponding to the C-terminus of HPV16 E6 (PDZ ligand), biotinylated in binding assays; ends SSRTRRETQL (SEQ ID NO: 13) [HPV E6 #16]", "values": [
      {"measurement": "Ave OD", "setting": "EBP50 #311.1 domain 1; A450 nm", "value": 0.4325},
      {"measurement": "OD S/N", "setting": "EBP50 #311.1 domain 1; vs GST only well", "value": 2.05},
      {"measurement": "Ave OD", "setting": "PDZ-73 domain 2; A450 nm", "value": 0.5615},
      {"measurement": "OD S/N", "setting": "PDZ-73 domain 2; vs GST only well", "value": 1.95},
      {"measurement": "Ave OD", "setting": "ZO-2 domain 2; A450 nm", "value": 0.3565},
      {"measurement": "OD S/N", "setting": "ZO-2 domain 2; vs GST only well", "value": 2.15},
      {"measurement": "Ave OD", "setting": "KIAA1719 domain 3; A450 nm", "value": 0.346},
      {"measurement": "OD S/N", "setting": "KIAA1719 domain 3; vs GST only well", "value": 1.65},
      {"measurement": "Ave OD", "setting": "INADL domain 8; A450 nm", "value": 0.3875},
      {"measurement": "OD S/N", "setting": "INADL domain 8; vs GST only well", "value": 1.58},
      {"measurement": "Ave OD", "setting": "INADL domain 4; A450 nm", "value": 0.357},
      {"measurement": "OD S/N", "setting": "INADL domain 4; vs GST only well", "value": 2.15},
      {"measurement": "Ave OD", "setting": "KIAA0382 domain 1; A450 nm", "value": "0.712 and 0.6995"},
      {"measurement": "OD S/N", "setting": "KIAA0382 domain 1; vs GST only well", "value": "3.61 and 2.66"},
      {"measurement": "Ave OD", "setting": "KIAA1526 #125.1 domain 1; A450 nm", "value": "1.379 and 0.7665"},
      {"measurement": "OD S/N", "setting": "KIAA1526 #125.1 domain 1; vs GST only well", "value": "6.69 and 3.57"},
      {"measurement": "Ave OD", "setting": "[1]; A450 nm", "value": "1.1585 and 1.0325"},
      {"measurement": "OD S/N", "setting": "[1]; vs GST only well", "value": "5.81 and 5.35"},
      {"measurement": "OD S/N", "setting": "PSD95 domain 2", "value": "12.23 and 12.53"},
      {"measurement": "Ave OD", "setting": "MAGI 1 domain 5; A450 nm", "value": "0.4325 and 0.541"},
      {"measurement": "OD S/N", "setting": "MAGI 1 domain 5; vs GST only well", "value": "1.77 and 3.12"},
      {"measurement": "Ave OD", "setting": "[2]; A450 nm", "value": "0.3585 and 0.618"},
      {"measurement": "OD S/N", "setting": "[2]; vs GST only well", "value": "2.00 and 3.08"},
      {"measurement": "Ave OD", "setting": "PAR3 #278.1 domain 3; A450 nm", "value": 0.352},
      {"measurement": "OD S/N", "setting": "PAR3 #278.1 domain 3; vs GST only well", "value": 1.80},
      {"measurement": "Ave OD", "setting": "PSD95 domain 1, 2, 3; A450 nm", "value": "3.523 and 3.866"},
      {"measurement": "OD S/N", "setting": "PSD95 domain 1, 2, 3; vs GST only well", "value": "22.58 and 19.67"}
    ]}
  ]
}
